Assay results: publication PMC6733959, “Synthesis and Evaluations of Novel Apocynin Derivatives as Anti-Glioma Agents” (Frontiers in Pharmacology, 2019)

How the values were obtained:
[1] = Transport experiment in the in vitro BBB cell model; assay type: in vitro ADME; conditions: Sprague-Dawley, rat, C0 20 μM, apical to basolateral, mean ± SD (n = 3-4), read-out: Papp × 10^−6
Procedure: (§1) Rat brain microvascular endothelial cells (BMECs) were separated from the cerebral cortex of 18-day-old male Sprague-Dawley rats as described previously ([Biegel et al., 1995]). Briefly, the cerebral cortical tissues were dissected from meninges after the rats were sacrificed, then the tissues were homogenated in physiological buffer solution (pH 7.4). After centrifugation, the pellets were collected, and the microvascular segments were then digested with 0.1% collagenase II at 37°C for 1 h. […] The second passage was used for co-culture of BBB cellular models.
Astrocytes were separated from the cerebral cortex of newborn Sprague-Dawley rats (1–2 days) as described previously ([Jeliazkova-Mecheva and Bobilya, 2003]). The brain tissues (removal of the meninges and blood vessel) were minced and mechanical homogenized and then digested with 0.25% trypsin-EDTA at 37°C for 10 min.
The in vitro BBB cell model was constructed in the Transwell 24well plate ([…], Millipore, USA). Before the experiment, the transwell filters were coated with matrigel matrix. The isolated rat astroglias were seeded onto one side of polycarbonate inserts (5 × 10^4 cells/insert). After 3 to 5 days, the rat BMECs were seeded at a density of 1.5 × 10^5 cells/insert onto the opposite side of the inserts to produce rat BMEC monolayers. The in vitro BBB cell model was formed 3 to 4 days. Trans-epithelial electrical resistance (TEER) measurements were performed everyday after the co-cultures formed until the TEER value increased to […] ([Yang et al., 2014]) ( Figure 2C ).
The transport experiments were performed by adding 400 μl HBSS containing the compounds to the apical side (AP), with 600μl HBSS to the basolateral side (BL) at the same time. Samples (60 μl) were collected from the BL chamber at the time points of 15, 30, 60, 90, 120, and 180 min, and the corresponding volume of HBSS buffer was immediately added into the BL chamber. The samples were precipitated by methanol, and the concentrations of the compounds in the samples were determined by high-performance liquid chromatography (HPLC). The HPLC conditions were as follows: Agilent TC-C18 column (250 × 4.6 mm; 5 μm), methanol 1% ethanoic acid mobile phase (from 10:90 to 90:10, v/v), with gradient elution at a flow rate of 1.0 ml/min. The detection wavelength was 275 nm for these compounds. The run time was 20 min. The apparent permeability coefficients (P app) were calculated from the following formula: P app = (∆Q/∆t)/(A × C 0), where ∆Q/∆t is the linear appearance rate of the compound on the BL side (μmol/s), A is the surface area of the cell monolayer (cm^2), and C 0 is the initial concentration of the drug on the AP side (μmol/L).

human glioma U87 cells = test: Anti-glioma MTT assay, U87 cells; assay type: cell-based; conditions: for IC50: Homo sapiens, U-87 MG, U87 cells
Procedure: (§2) The anti-glioma effects of these compounds were evaluated by MTT assay in rat C6 glioma cells, human glioma U87 and U251 cells, and BMECs cells. Brieﬂy, cells were seeded at the density of 4,000 cells/well in 96-well plates overnight. For the first screening, the cells were incubated with 10, 20, 100 μM compounds for 48 h. Then cell viabilities were detected by MTT assay as described above. For the second screening, the cells were incubated with 6.25-, 12.5-, 25-, 50-, and 100μM compounds for 48 and 96 h, and then detected by MTT assay. The OD of each well was measured at 490 nm on an ELISA microplate reader. The inhibitory rates and IC50 values were calculated.

rat C6 glioma cells = test: Anti-glioma MTT assay, C6 cells; assay type: cell-based; conditions: for IC50: Rattus norvegicus, C6 cells
Procedure: as §2

C6 cells = test: Apoptosis by Annexin V-FITC/PI staining, C6 cells; assay type: cell-based, rat; conditions: 48 h, mean ± SD
Procedure: The effects of test compound on apoptosis were detected by Annexin V-FITC/PI staining. Briefly, after treatment with indicated concentrations of test compounds (20, 50 μM) for 48 h, the cells were collected and resuspended in 500-μl detection buffer. Then 5μl PI and 5μl Annexin V-FITC were added to the detection buffer. Then, cells were incubated for 15 min in the dark and analyzed using Flow cytometer (Becton Dickinson) and WinMDI 2.8 software (Scripps Institute, La Jolla, CA, USA).

NADPH oxidase (NOX) = test: NOX activity determination, C6 cells; assay type: cell-based, rat; conditions: 20 and 50 μM
Procedure: The effects of candidate drug on NOX activities were measured using cytochrome c reductase (NADPH) Assay Kit (Sigma-Aldrich, St. Louis, MO, USA). Brieﬂy, after the compound treatment (20, 50 μM), the cells were collected and homogenized in an isotonic buffer ([…]), and centrifuged at 1,000 g to obtain the post-nuclear supernatants. Then 50μl samples were added to 950μl working solution (at 25°C) in a 1ml cuvette and mixed by inversion. Then 20μl cytochrome c oxidase inhibitor solution was added. After reaction with 100 μl NADPH solution, the cytochrome c absorbance was monitored at 550 nm by a spectrophotometer.

BMECs = test: MTT assay on normal BMECs (48 and 96 h); assay type: cell-based; conditions: Rattus norvegicus
Procedure: as §1, §2

[2] = 10, 20, 100 μM, 48 h, compared with D1, P < 0.05

With `COc1cc(C(=O)CSCc2ccccc2Cl)ccc1O` [Compound D31, 2-((2-Chlorobenzyl)thio)-1-(4-Hydroxy-3-Methoxyphenyl)Ethan-1-One] the Papp at 90 min, 20 μM [1] was 12 ± 0.94 ×10⁻⁶ cm/s, the “Anti-proliferation effect on U87 cells (first screening)” value (human glioma U87 cells; [2]) was “significant anti-proliferation effects” and the IC50 (human glioma U87 cells; 48 h) was 23.5 µM. For the same compound, the IC50 (human glioma U87 cells; 96 h) was 21.5 µM, the “Anti-proliferation effect on C6 cells (first screening)” value (rat C6 glioma cells; [2]) was “significant anti-proliferation effects” and the IC50 (rat C6 glioma cells; 48 h) was 35.1 µM. The IC50 (rat C6 glioma cells; 96 h) was 25.4 µM, the Apoptotic cell rate (C6 cells; 20 μM) was 27.9 ± 4.2% and the Apoptotic cell rate (C6 cells; 50 μM) was 32.2 ± 5.0%. The “Effect on NOX activities vs control” value (NADPH oxidase (NOX)) was “no obvious effects”, the IC50 (BMECs; 48 h) was > 100 µM and the IC50 (BMECs; 96 h) was > 100 µM.
